The values that follow come from ChEMBL document CHEMBL2073987, “The sulphonylurea glibenclamide inhibits multidrug resistance protein (MRP1) activity in human lung cancer cells” (Br J Pharmacol, 2001).

The target of data set [1] is Multidrug resistance-associated protein 1 (Homo sapiens, UniProt P33527). Briefly: TP_TRANSPORTER: inhibition of Calcein efflux (Calcein: 0.5 micro;M, Glibenclamide: 50-100 uM, increase intercellular calcein level by ca 4 fold ) in GLC4/Sb30 cells. It is filed as functional, cell-based.
Data set [2] has as its target ATP-binding cassette sub-family C member 2 (Rattus norvegicus, UniProt Q63120). Briefly: TP_TRANSPORTER: inhibition of Carboxy-2',7'-dichlorofluorescein efflux (Calcein: 0.5 micro;M, Glibenclamide, 50-100 uM, increase intercellular CF level by ~2 fold) in isolated rat hepatocytes. It is filed as functional, cell-based, Hepatocyte.

ATP-binding cassette sub-family C member 2, sequence (Q63120 whole entry): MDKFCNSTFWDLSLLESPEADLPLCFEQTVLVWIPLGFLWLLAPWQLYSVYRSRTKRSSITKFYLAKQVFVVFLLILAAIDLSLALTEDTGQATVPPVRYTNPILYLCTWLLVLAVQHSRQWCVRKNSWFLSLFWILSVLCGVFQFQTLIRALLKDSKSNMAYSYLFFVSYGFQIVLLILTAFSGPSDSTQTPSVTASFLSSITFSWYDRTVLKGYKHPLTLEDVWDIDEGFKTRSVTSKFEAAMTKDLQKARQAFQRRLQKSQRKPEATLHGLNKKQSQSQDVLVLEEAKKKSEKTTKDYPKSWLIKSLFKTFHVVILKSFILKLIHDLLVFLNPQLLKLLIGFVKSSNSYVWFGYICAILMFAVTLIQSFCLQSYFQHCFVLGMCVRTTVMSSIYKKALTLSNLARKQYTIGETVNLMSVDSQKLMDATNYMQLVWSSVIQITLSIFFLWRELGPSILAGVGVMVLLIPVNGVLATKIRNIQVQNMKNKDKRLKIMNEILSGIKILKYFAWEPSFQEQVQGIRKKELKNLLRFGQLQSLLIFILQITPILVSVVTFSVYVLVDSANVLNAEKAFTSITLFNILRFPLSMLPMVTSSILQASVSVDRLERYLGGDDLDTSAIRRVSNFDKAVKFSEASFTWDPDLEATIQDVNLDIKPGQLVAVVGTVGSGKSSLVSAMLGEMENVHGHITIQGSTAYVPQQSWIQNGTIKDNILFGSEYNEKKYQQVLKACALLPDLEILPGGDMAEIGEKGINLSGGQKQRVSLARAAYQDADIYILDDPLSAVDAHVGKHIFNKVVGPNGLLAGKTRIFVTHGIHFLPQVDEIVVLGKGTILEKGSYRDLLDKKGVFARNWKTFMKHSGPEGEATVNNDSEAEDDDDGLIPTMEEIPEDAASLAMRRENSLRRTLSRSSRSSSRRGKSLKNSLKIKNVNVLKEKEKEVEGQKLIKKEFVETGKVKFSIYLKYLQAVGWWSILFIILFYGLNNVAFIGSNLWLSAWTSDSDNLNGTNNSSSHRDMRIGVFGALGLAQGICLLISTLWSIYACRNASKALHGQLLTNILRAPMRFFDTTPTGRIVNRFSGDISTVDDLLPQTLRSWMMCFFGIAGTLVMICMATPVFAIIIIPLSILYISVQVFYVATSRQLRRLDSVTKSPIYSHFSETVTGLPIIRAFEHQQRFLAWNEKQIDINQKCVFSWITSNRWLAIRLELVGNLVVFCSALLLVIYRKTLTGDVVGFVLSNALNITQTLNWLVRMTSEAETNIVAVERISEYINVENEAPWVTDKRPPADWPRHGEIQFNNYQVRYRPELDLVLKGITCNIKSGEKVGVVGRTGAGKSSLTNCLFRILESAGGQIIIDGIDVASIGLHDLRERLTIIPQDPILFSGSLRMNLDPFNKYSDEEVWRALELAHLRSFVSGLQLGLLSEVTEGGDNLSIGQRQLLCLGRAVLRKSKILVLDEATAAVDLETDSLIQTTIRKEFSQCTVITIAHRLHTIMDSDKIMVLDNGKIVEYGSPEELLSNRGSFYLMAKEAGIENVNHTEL
Multidrug resistance-associated protein 1, sequence (P33527 whole entry): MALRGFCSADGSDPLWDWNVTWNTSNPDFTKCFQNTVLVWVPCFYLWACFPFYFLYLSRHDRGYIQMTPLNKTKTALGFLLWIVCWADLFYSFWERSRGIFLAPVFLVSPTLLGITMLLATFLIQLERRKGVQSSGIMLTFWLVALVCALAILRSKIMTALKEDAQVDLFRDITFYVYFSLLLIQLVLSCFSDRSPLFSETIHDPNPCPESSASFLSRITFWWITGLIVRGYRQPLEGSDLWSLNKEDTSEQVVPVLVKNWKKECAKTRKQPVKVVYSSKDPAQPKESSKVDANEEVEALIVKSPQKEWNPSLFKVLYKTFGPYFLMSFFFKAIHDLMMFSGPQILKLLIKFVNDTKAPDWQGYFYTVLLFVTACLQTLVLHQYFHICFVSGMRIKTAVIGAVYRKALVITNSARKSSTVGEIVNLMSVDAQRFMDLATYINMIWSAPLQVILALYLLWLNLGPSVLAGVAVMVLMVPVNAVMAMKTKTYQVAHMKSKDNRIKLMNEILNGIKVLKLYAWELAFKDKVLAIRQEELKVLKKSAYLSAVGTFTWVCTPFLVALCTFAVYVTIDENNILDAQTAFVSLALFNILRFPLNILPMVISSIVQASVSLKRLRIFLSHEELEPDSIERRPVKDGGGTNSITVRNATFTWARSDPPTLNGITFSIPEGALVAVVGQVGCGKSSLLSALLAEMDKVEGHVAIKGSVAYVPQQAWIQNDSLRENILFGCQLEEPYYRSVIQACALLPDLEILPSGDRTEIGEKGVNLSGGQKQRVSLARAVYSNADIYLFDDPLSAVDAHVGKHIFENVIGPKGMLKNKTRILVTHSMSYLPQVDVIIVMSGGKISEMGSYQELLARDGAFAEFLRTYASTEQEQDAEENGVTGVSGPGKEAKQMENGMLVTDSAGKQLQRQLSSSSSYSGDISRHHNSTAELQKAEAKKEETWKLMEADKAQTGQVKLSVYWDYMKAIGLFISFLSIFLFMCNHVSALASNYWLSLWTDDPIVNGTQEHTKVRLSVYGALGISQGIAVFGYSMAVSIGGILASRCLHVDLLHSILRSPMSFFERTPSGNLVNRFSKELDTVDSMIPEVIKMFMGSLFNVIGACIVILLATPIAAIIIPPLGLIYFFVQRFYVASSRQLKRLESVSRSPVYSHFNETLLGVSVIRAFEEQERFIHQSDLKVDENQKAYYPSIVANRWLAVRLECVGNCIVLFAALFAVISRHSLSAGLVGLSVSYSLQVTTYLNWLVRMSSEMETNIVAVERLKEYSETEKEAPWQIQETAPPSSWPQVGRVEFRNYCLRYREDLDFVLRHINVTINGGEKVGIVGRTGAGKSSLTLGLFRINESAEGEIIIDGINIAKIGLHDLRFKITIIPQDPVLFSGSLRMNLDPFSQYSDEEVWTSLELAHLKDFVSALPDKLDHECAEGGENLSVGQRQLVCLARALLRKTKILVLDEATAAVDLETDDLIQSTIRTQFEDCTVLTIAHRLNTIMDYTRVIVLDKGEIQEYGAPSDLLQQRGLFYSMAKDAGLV

Consider `COc1ccc(Cl)cc1C(=O)NCCc1ccc(S(=O)(=O)NC(=O)NC2CCCCC2)cc1` [GLYBURIDE], for which the Activity entry in data set [1] and in data set [2] was “inhibitor [+]” throughout.
